From US11214835B1, “Methods and compositions for diagnosis and management of neurodegerative diseases” (UNIVERSITY OF SOUTH FLORIDA, priority 2017, dated 2022)

Columns and labels:
GAS5 transcript = experiment: RNA-EMSA (REMSA) of compound binding to biotin-labeled GAS5 transcript; conditions: 0.1 nM biotin-labeled GAS5, 10 nM compound, yeast tRNA, 20 min at room temperature
Procedure: RNA-EMSA was performed as previously described (see e.g. Apostolatos, H., Apostolatos, A., Vickers, T., Watson, J. E., Song, S., Vale, F., Cooper, D. R., Sanchez-Ramos, J., and Patel, N. A. (2010) Vitamin A metabolite, all-trans-retinoic acid, mediates alternative splicing of protein kinase C deltaVIII (PKCdeltaVIII) isoform via splicing factor SC35. J Biol Chem 285, 25987-25995 and Patel, R. S., Carter, G., Cooper, D. R., Apostolatos, H., and Patel, N. A. (2014) Transformer 2beta homolog (Drosophila) (TRA2B) regulates protein kinase C deltaI (PKCdeltaI) splice variant expression during 3T3L1 preadipocyte cell cycle. J Biol Chem 289, 31662-31672
Briefly, GAS5 was cloned in TOPO vector which has the T7 promoter. […] 0.1 nM of transcribed, biotin-labeled GAS5 was incubated with 10 nM G5-1397 in presence of 10U yeast tRNA and 10 units of RNase inhibitor in a final volume of 10 μl of RNA shift buffer for 20 min at room temperature and detected using Biotin Chromogenic Detection kit (ThermoFisher). […]
As the compound(s) were designed to bind to GAS5 such that it would disrupt binding to UPF1, the compound(s) ability to bind to GAS5 was examined. […] Next, it was evaluated whether NPG567 could stabilize GAS5 in HT22 cells over-expressing UPF1 (from Addgene). […] GAS5 levels were measured using SYBR Green qPCR. […]

GAS5 [1] = experiment: GAS5 levels in DM adipocytes by SYBR Green qPCR; type: cell-based, human; conditions: 20 nM, 24 hours
Procedure: DM adipocytes were treated with G5-1397 (20 nM) for about 24 hours. GAS5 levels were measured using SYBR Green qPCR.
Depletion of GAS5 decreases glucose uptake: Adipose tissue is the primary target for insulin-mediated glucose uptake. […] To maintain reproducibility over a larger number of experiments, adipose stem cells derived from normal or diabetic patients were purchased from Zenbio (BMI 20-24, Nondiabetic HbA1C 5.9 (hereafter referred as NDM); T2DM HbA1c 8.5 (hereafter referred as DM)). The adipose stem cells (ASC) were differentiated in vitro to mature adipocytes and used in experiments. GAS5 siRNA (10 nM, Ambion 332778, validated; scrambled siRNA as control) was transfected in NDM pre-adipocytes for 48 h, differentiated to mature NDM adipocytes for 8 days and knockdown confirmed by GAS5 SYBR Green qPCR. We determined the effect of GAS5 depletion on glucose uptake by NDM adipocytes. Cells were serum starved, 10 nM insulin was added to cells for 30 minutes and [^3H]-deoxy-2-D-Glucose uptake was measured. Results indicated a decrease in glucose uptake in GAS5 depleted NDM adipocytes ***p<0.001, highly significant using two-tailed students t-test.
Compound NPG5-C86 can increase GAS5 levels in diabetic adipocytes: Next, it was evaluated whether NPG5-C86 could stabilize GAS5 in diabetic adipocytes. […] GAS5 levels were measured using SYBR Green qPCR.

GAS5 [2] = experiment: Binding of side-chain derivatives to GAS5 (preliminary data)
NEAT1, MALAT1 = experiment: Levels of other lncRNAs in neurons by qPCR (specificity); type: cell-based, mouse
neuronal cells = experiment: WST-1 cellular toxicity assay (Roche); type: cell-based

CC(C)C[C@H]1CN(C(=O)CC2CC2)CC(=O)N[C@@H](CCCCN)CN(C(=O)CCc2ccccc2)CC(=O)N[C@@H](Cc2ccccc2)CN(CC(N)=O)C(=O)CCSCc2ccc(cc2)C(=O)N[C@@H](Cc2ccccc2)CN(C(=O)CC2CC2)CC(=O)N1 [Formula G5-1397]
binding to GAS5 transcript in RNA-EMSA (GAS5 transcript): bound to GAS5 transcript | GAS5 levels in DM adipocytes (GAS5 [1]): substantially increases GAS5 levels

NCCCC[C@H]1CN(C(=O)CCc2ccccc2)CC(=O)N[C@@H](CCC(=O)O)CN(CC(N)=O)C(=O)CCSCc2ccc(cc2)C(=O)N[C@@H](CCC(=O)O)CN(C(=O)CCC(=O)O)CC(=O)N[C@@H](CCCCN)CN(C(=O)CCCN)CC(=O)N1 [NPG567]
binding to GAS5 (GAS5 [2]): bound efficiently to GAS5 | levels of other lncRNAs NEAT1, MALAT1 present in neurons (NEAT1, MALAT1; 10 nM, NC): did not affect | specificity (NEAT1, MALAT1; in neurons): shows specificity | cellular toxicity (neuronal cells; WST-1 assay (Roche)): does not cause cellular toxicity | toxicity to cells (neuronal cells; in neurons): not toxic to cells | binding to GAS5 transcript in RNA-EMSA (GAS5 transcript): can bind to GAS5 transcript
